From patent publication US20240270741A1 (Cogent Biosciences, Inc., priority 2023, published 2024)
Read-outs that look alike come from different tables or passages of the source.

Target: FGFR2 (Homo sapiens, UniProt P21802)
Assay: FGFR wild type enzyme assay (HTRF KinEASE-TK), FGFR2
Settings: FGFR2 wild type enzyme assay

Sequence of FGFR2 (P21802 399-821 limits assumed): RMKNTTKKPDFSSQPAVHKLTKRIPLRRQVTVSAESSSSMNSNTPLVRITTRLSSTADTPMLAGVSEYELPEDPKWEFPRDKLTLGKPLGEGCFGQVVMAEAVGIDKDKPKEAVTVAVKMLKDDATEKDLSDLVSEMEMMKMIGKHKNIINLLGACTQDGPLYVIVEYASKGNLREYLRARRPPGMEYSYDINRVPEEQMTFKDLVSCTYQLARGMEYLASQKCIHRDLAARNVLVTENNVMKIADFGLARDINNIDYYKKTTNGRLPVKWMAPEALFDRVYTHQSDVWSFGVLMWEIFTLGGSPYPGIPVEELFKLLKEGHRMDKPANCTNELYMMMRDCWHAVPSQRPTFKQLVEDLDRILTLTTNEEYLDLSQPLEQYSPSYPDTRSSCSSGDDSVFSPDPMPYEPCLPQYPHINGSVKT

SMILES	IC50 (Enz FGFR2 (nM))	IC50 (read-out: Enz FGFR2)
N#Cc1ccccc1Sc1cc(-c2cnn(CCCO)c2)cn2ncc(C#N)c12 [Example 583, 4-((2-cyanophenyl)thio)-6-(1-(3-hydroxypropyl)-1H-pyrazol-4-yl)pyrazolo[1,5-a]pyridine-3-carbonitrile]	1 nM	–
N#Cc1cc(F)ccc1Sc1cc(-c2ccc(N3CCC(O)CC3)nc2)cn2ncc(C#N)c12 [Example 586, 4-((2-cyano-4-fluorophenyl)thio)-6-(6-(4-hydroxypiperidin-1-yl)pyridin-3-yl)pyrazolo[1,5-a]pyridine-3-carbonitrile]	1 nM	–
Cn1ccc(-c2cc(Sc3ccc(F)cc3C#N)c3c(C#N)cnn3c2)cc1=O [Example 587, 4-((2-cyano-4-fluorophenyl)thio)-6-(1-methyl-2-oxo-1,2-dihydropyridin-4-yl)pyrazolo[1,5-a]pyridine-3-carbonitrile]	43 nM	–
N#Cc1ccccc1Sc1cc(-c2cnn(CC(F)(F)F)c2)cn2ncc(C#N)c12 [Example 588]	2 nM	–
Cc1c(-c2cc(Sc3ccccc3C#N)c3c(C#N)cnn3c2)cnn1C1CCN(C(=O)C(C)(C)O)CC1 [Example 589, 4-((2-cyanophenyl)thio)-6-(1-(1-(2-hydroxy-2-methylpropanoyl)piperidin-4-yl)-5-methyl-1H-pyrazol-4-yl)pyrazolo[1,5-a]pyridine-3-carbonitrile]	1 nM	–
N#Cc1cc(F)ccc1Sc1cc(-c2ccc(N3CCNCC3)nc2)cn2ncc(C#N)c12 [Example 595, 4-((2-cyano-4-fluorophenyl)thio)-6-(6-(piperazin-1-yl)pyridin-3-yl)pyrazolo[1,5-a]pyridine-3-carbonitrile]	15 nM	–
CN(CC(O)CO)c1ccc(-c2cc(Sc3ccc(F)cc3C#N)c3c(C#N)cnn3c2)cn1 (stereo not shown) [Example 596, 4-((2-cyano-4-fluorophenyl)thio)-6-(6-((2,3-dihydroxypropyl)(methyl)amino)pyridin-3-yl)pyrazolo[1,5-a]pyridine-3-carbonitrile]	1 nM	–
Cc1cccc(C#N)c1Sc1cc(-c2cnn(C)c2)cn2ncc(C#N)c12 [Example 597, 4-((2-cyano-6-methylphenyl)thio)-6-(1-methyl-1H-pyrazol-4-yl)pyrazolo[1,5-a]pryidine-3-carbonitrile]	30 nM	–
CN(C)CCn1cc(-c2cc(Sc3ccccc3C#N)c3c(C#N)cnn3c2)cn1 [Example 598, 4-((2-cyanophenyl)thio)-6-(1-(2-(dimethylamino)ethyl)-1H-pyrazol-4-yl)pyrazolo[1,5-a]pryidine-3-carbontrile]	1 nM	–
CC(=O)N1CCN(c2nnc(-c3cc(Sc4ccccc4C#N)c4c(C#N)cnn4c3)s2)CC1 [Example 600, 6-(5-(4-acetylpiperazin-1-y)-1,3,4-thiadiazol-2-yl)-4-((2-cyanophenyl)thio)pyrazolo [1,5-a]pyridine-3-carbonitrile]	6 nM	–
CC(=O)N1CCN(c2ncc(-c3cc(Sc4ccccc4C#N)c4c(C#N)cnn4c3)o2)CC1 [Example 601, 6-(2-(4-acetylpiperazin-1-yl)oxazol-5-yl)-4-((2-cyanophenyl)thio)pyrazolo [1,5-a]pyridine-3-carbonitrile]	53 nM	–
CC(=O)O[C@H]1CC[C@H](n2ncc(-c3cc(Sc4ccc(F)cc4C#N)c4c(C#N)cnn4c3)c2C)CC1 [Example 602, (1r,4r)-4-(4-(3-cyano-4-((2-cyano-4-fluorophenyl)thhio)pyrazolo [1,5-a]pyridin-6-yl)-5-methyl-1H-pyrazol-1-yl)cyclohexyl acetate]	–	2 nM
Cn1ncc(-c2cc(Sc3ccccc3C#N)c3c(C#N)cnn3c2)c1N [Example 608, 6-(5-amino-1-methyl-1H-pyrazol-4-yl)-4-((2-cyanophenyl)thio)pyrazolo [1,5-a]pyridine-3-carbonitrile]	2 nM	–
CN1CCN(c2ccc(-c3cc(Sc4ccc(F)cc4C#N)c4c(C#N)cnn4c3)cn2)CC1=O [Example 610, 4-((2-cyano-4-fluorophenyl)thio)-6-(6-(4-methyl-3-oxopiperazin-1-yl)pyridin-3-yl)pyrazolo[1,5-a]pyridine-3-carbonitrile]	2 nM	–
N#Cc1cc(F)ccc1Sc1cc(-c2ccc(N3C[C@H](O)[C@@H](O)C3)nc2)cn2ncc(C#N)c12 [Example 611, 4-((2-cyano-4-fluorophenyl)thio)-6-(6-((3S,4S)-3,4-dihydroxypyrrolidin-1-yl)pyridin-3-yl)pyrazolo[1,5-a]pyridine-3-carbonitrile]	3 nM	–
CN(C)c1ccc(-c2cc(Sc3ccc(F)cc3C#N)c3c(C#N)cnn3c2)cn1 [Example 612, 4-((2-cyano-4-fluorophenyl)thio)-6-(6-(dimethylamino)pyridin-3-yl)pyrazolo[1,5-a]pyridine-3-carbonitrile]	2 nM	–
Cc1c(-c2cc(Sc3ccccc3C#N)c3c(C#N)cnn3c2)cnn1C [Example 614, 4-((2-cyanophenyl)thio)-6-(1,5-dimethyl-1H-pyrazol-4-yl)pyrazolo[1,5-a]pyridine-3-carbonitrile]	9 nM	–

The next lines start with the values.

IC50 (Enz FGFR2 (nM))	IC50 (read-out: Enz FGFR2)	SMILES
0.5 nM	–	N#Cc1ccccc1Sc1cc(-c2cnn([C@@H]3CCNC3)c2)cn2ncc(C#N)c12 [Example 581, (R)-4-((2-cyanophenyl)thio)-6-(1-(pyrrolidin-3-yl)-1H-pyrazol-4-yl)pyrazolo[1,5-a]pyridine-3-carbonitrile]
1 nM	–	CC(=O)N1CC[C@@H](n2cc(-c3cc(Sc4ccccc4C#N)c4c(C#N)cnn4c3)cn2)C1 [Example 582, (R)-6-(1-(1-acetylpyrrolidin-3-yl)-1H-pyrazol-4-yl)-4-((2-cyanophenyl)thio)pyrazolo [1,5-a]pyridine-3-carbonitrile]
6 nM	–	N#Cc1ccccc1Sc1cc(-c2cnn(C(F)F)c2)cn2ncc(C#N)c12 [Example 584, 4-((2-cyanophenyl)thio)-6-(1-(difluoromethyl)-1H-pyrazol-4-yl)pyrazolo[1,5-a]pyridine-3-carbonitrile]
1 nM	–	N#Cc1ccccc1Sc1cc(-c2cnn(C3CCOC3)c2)cn2ncc(C#N)c12 (stereo not shown) [Example 585, 4-((2-cyanophenyl)thio)-6-(1-(tetrahydrofuran-3-yl)-1H-pyrazol-4-yl)pyrazolo[1,5-a]pryidine-3-carbonitrile]
0.5 nM	–	C[C@@H](O)C(=O)N1CCC[C@H](n2cc(-c3cc(Sc4ccccc4C#N)c4c(C#N)cnn4c3)cn2)C1 [Example 590, 4-((2-cyanophenyl)thio)-6-(1-((S)-1-((R)-2-hydroxypropanoyl)piperidin-3-yl)-1H-pyrazol-4-yl)pyrazolo[1,5-a]pyridine-3-carbonitrile]
0.4 nM	–	N#Cc1ccccc1Sc1cc(-c2cnn([C@@H]3CCNC(=O)C3)c2)cn2ncc(C#N)c12 [Example 591, (R)-4-((2-cyanophenyl)thio)-6-(1-(2-oxopiperidin-4-yl)-1H-pyrazol-4-yl)pyrazolo[1,5-a]pyridine-3-carbonitrile]
1 nM	–	N#Cc1ccccc1Sc1cc(-c2cnn([C@H]3CCNC(=O)C3)c2)cn2ncc(C#N)c12 [Example 592, (S)-4-((2-cyanophenyl)thio)-6-(1-(2-oxopiperidin-4-yl)-1H-pyrazol-4-yl)pyrazolo[1,5-a]pyridine-3-carbonitrile]
1 nM	–	CC1(C)CC[C@H](n2cc(-c3cc(Sc4ccccc4C#N)c4c(C#N)cnn4c3)cn2)CN1 [Example 593, (S)-4-((2-cyanophenyl)thio)-6-(1-(6,6-dimethylpiperidin-3-yl)-1H-pyrazol-4-yl)pyrazolo[1,5-a]pyridine-3-carbonitrile]
1 nM	–	CC1(C)CC[C@@H](n2cc(-c3cc(Sc4ccccc4C#N)c4c(C#N)cnn4c3)cn2)CN1 [Example 594, (R)-4-((2-cyanophenyl)thio)-6-(1-(6,6-dimethylpiperidin-3-yl)-1H-pyrazol-4-yl)pyrazolo[1,5-a]pyridine-3-carbonitrile]
2 nM	–	N#Cc1ccccc1Sc1cc(-c2cnn([C@H]3CCCC[C@H]3O)c2)cn2ncc(C#N)c12 [Example 599, 4-((2-cyanophenyl)thio)-6-(1-((1S,2R)-2-hydroxycyclohexyl)-1H-pyrazol-4-yl)pyrazolo[1,5-a]pyridine-3-carbonitrile]
0.6 nM	–	N#Cc1ccccc1Sc1cc(-c2cnn([C@@H]3CCN(CCO)C3)c2)cn2ncc(C#N)c12 [Example 603, (R)-4-((2-cyanophenyl)thio)-6-(1-(1-(2-hydroxyethyl)pyrrolidin-3-yl)-1H-pyrazol-4-yl)pyrazolo[1,5-a]pyridine-3-carbonitrile]
0.5 nM	–	CN1CC[C@@H](n2cc(-c3cc(Sc4ccccc4C#N)c4c(C#N)cnn4c3)cn2)C1 [Example 604, (R)-4-((2-cyanophenyl)thio)-6-(1-(1-methylpyrrolidin-3-yl)-1H-pyrazol-4-yl)pyrazolo[1,5-a]pyridine-3-carbonitrile]
0.6 nM	–	C[C@@H](O)C(=O)N1CC[C@@H](n2cc(-c3cc(Sc4ccccc4C#N)c4c(C#N)cnn4c3)cn2)C1 [Example 605, 4-((2-cyanophenyl)thio)-6-(1-((R)-1-((R)-2-hydroxypropanoyl)pyrroli-din-3-yl)-1H-pyrazol-4-yl)pyrazolo[1,5-a]pyridine-3-carbonitrile]
0.5 nM	–	C[C@H](O)C(=O)N1CC[C@@H](n2cc(-c3cc(Sc4ccccc4C#N)c4c(C#N)cnn4c3)cn2)C1 [Example 606, 4-((2-cyanophenyl)thio)-6-(1-((R)-1-((S)-2-hydroxypropanoyl)pyrrolidin-3-yl)-1H-pyrazol-4-y)pyrazolo[1,5-a]pyridine-3-carbonitrile]
10 nM	–	N#Cc1ccccc1Sc1cc(-c2cnn(C(F)(F)F)c2)cn2ncc(C#N)c12 [Example 607, 4-((2-cyanophenyl)thio)-6-(1-(trifluoromethyl)-1H-pyrazol-4-yl)pyrazolo[1,5-a]pyridine-3-carbonitrile]
4 nM	–	N#Cc1ccccc1Sc1cc(-c2cnn(-c3cn[nH]c3)c2)cn2ncc(C#N)c12 [Example 609, 6-(1′H-[1,4′-bipyrazol]-4-yl)-4-((2-cyanophenyl)thio)pyrazolo [1,5-a]pyridine-3-carbonitrile]
1 nM	–	N#Cc1ccccc1Sc1cc(-c2cnn(CC(F)F)c2)cn2ncc(C#N)c12 [Example 613, 4-((2-cyanophenyl)thio)-6-(1-(2,2-difluoroethyl)-1H-pyrazol-4-yl)pyrazolo[1,5-a]pyridine-3-carbonitrile]
